# In article PMC9964319, “Half-Sandwich Rhodium Complexes with Releasable N-Donor Monodentate Ligands: Solution Chemical Properties and the Possibility for Acidosis Activation” (Pharmaceutics, 2023):
# Read-outs that look alike come from different tables or passages of the source.
# Legend:
# Experiment in all cases: Antibacterial assay, MIC in 96-well plates at different pH
# Assay type in all cases: cell-based
# [1] = tested on: E. coli 32313 (resistant)
# Source text: (§1) The antibacterial effect was studied in two Gram-positive and in two Gram-negative strains. The Gram-positive S. aureus ATCC 25923 (ATCC, Manassas, VA, USA) is a methicillin-susceptible reference bacterial strain, while S. aureus 272123 is a clinical isolate and resistant to methicillin and ofloxacin (MRSA), which was given by Prof. Dr. Leonard Amaral (Institute of Hygiene and Tropical Medicine, Lisbon, Portugal). The Gram-negative strains were E. coli ATCC 25922 (ATCC, Manassas, VA, USA), which is sensitive to antibiotics, and E. coli 32313 (provided by the Institute of Clinical Microbiology, University of Szeged, Hungary), which is resistant to different antibiotics (trimethoprim/sulfamethoxazole, gentamicin, ciprofloxacin, and norfloxacin).
# (§2) The minimum inhibitory concentrations (MICs) of the compounds were determined in 96-well plates based on the Clinical and Laboratory Standard Institute guidelines. The compounds were diluted in 100 μL of Mueller Hinton broth. Then, an overnight bacterial culture diluted 10,000 times in 100 μL of medium was added to each well, with the exception of the medium control wells. For each strain and each tested compound, four pH values were set (5, 6, 7, and 8). Each sample was triplicated.
# [2] = tested on: E. coli ATCC 25922 (sensitive)
# Source text: as §1, §2
# [3] = tested on: S. aureus ATCC 25923 (methicillin-susceptible); conditions: Staphylococcus aureus, ATCC25923, 24 h
# Source text: as §1, §2
# S. aureus 272123 (MRSA) = conditions: Staphylococcus aureus, 24 h
# Source text: as §1, §2
# [4] = Escherichia coli, 24 h, E. coli resistant, pH 5, after one day, read-out: MIC
# [5] = Escherichia coli, 24 h, E. coli resistant, pH 6, after one day, read-out: MIC
# [6] = Escherichia coli, 24 h, E. coli resistant, pH 7, after one day, read-out: MIC
# [7] = Escherichia coli, 24 h, E. coli resistant, pH 8, after one day, read-out: MIC
# [8] = Escherichia coli, ATCC25922, 24 h, E. coli sensitive, pH 5, after one day, read-out: MIC
# [9] = Escherichia coli, ATCC25922, 24 h, E. coli sensitive, pH 6, after one day, read-out: MIC
# [10] = Escherichia coli, ATCC25922, 24 h, E. coli sensitive, pH 7, after one day, read-out: MIC
# [11] = Escherichia coli, ATCC25922, 24 h, E. coli sensitive, pH 8, after one day, read-out: MIC
# [12] = S. aureus sensitive, pH 7, after one day, read-out: MIC
# [13] = S. aureus sensitive, pH 8, after one day, read-out: MIC
# [14] = pH 5, after one day, read-out: MIC
# [15] = pH 6, after one day, read-out: MIC
# [16] = pH 7, after one day, read-out: MIC
# [17] = pH 8, after one day, read-out: MIC
Structure (SMILES),"MIC [1, 4] [µM]","MIC [1, 5] [µM]","MIC [1, 6] [µM]","MIC [1, 7] [µM]","MIC [2, 8] [µM]","MIC [2, 9] [µM]","MIC [2, 10] [µM]","MIC [2, 11] [µM]","MIC [3, 12] [µM]","MIC [3, 13] [µM]",MIC (S. aureus 272123 (MRSA); [14]) [µM],MIC (S. aureus 272123 (MRSA); [15]) [µM],MIC (S. aureus 272123 (MRSA); [16]) [µM],MIC (S. aureus 272123 (MRSA); [17]) [µM],further results
"c1cnc2c(c1)ccc1cccnc12 [phen, 1,10-phenanthroline, reference compound]",50,50,50,50,50,50,50,25,> 100,> 100,50,> 100,> 100,> 100,–
"Clc1ccc(COC(Cn2ccnc2)c2ccc(Cl)cc2Cl)cc1 (stereo not drawn) [econ, econazole, reference compound]",> 100,> 100,> 100,> 100,> 100,> 100,> 100,> 100,0.78,0.19,25,12.5,6.25,3.12,"MIC ([1]; E. coli resistant, pH 6, after one day, read-out: MIC): >100 µM; MIC ([1]; E. coli resistant, pH 7, after one day, read-out: MIC): >100 µM; MIC ([2]; E. coli sensitive, pH 6, after one day, read-out: MIC): >100 µM; MIC ([2]; E. coli sensitive, pH 7, after one day, read-out: MIC): >100 µM"
"O=P(O)(O)C(O)(Cn1ccnc1)P(=O)(O)O [zol, zoledronic acid, reference compound]",> 100,> 100,> 100,> 100,> 100,> 100,> 100,> 100,> 100,> 100,> 100,> 100,> 100,> 100,–
"Oc1cccc2cccnc12 [Complex 8HQ, 8-hydroxyquinoline, reference compound]",–,–,–,–,–,–,–,–,–,–,–,–,–,–,"MIC ([1]; Escherichia coli, 24 h, pH 5): > 100 µM; MIC ([1]; Escherichia coli, 24 h, pH 6): > 100 µM; MIC ([1]; Escherichia coli, 24 h, pH 7): > 100 µM; MIC ([1]; Escherichia coli, 24 h, pH 8): > 100 µM; MIC ([2]; Escherichia coli, ATCC25922, 24 h, pH 5): > 100 µM; MIC ([2]; Escherichia coli, ATCC25922, 24 h, pH 6): > 100 µM; MIC ([2]; Escherichia coli, ATCC25922, 24 h, pH 7): > 100 µM; MIC ([2]; Escherichia coli, ATCC25922, 24 h, pH 8): > 100 µM; MIC ([3]; pH 7): 25 µM; MIC ([3]; pH 8): 25 µM; MIC (S. aureus 272123 (MRSA); pH 5): 100 µM; MIC (S. aureus 272123 (MRSA); pH 6): 6.25 µM; MIC (S. aureus 272123 (MRSA); pH 7): 6.25 µM; MIC (S. aureus 272123 (MRSA); pH 8): 6.25 µM"
